In publication PMC8418751, “3D-printing magnesium–polycaprolactone loaded with melatonin inhibits the development of osteosarcoma by regulating cell-in-cell structures” (Journal of Nanobiotechnology, 2021):

Assays:
U2OS cells [1] = test: Transwell (Boyden chamber) cell invasion and migration assays; type: cell-based, human; settings: 24 h
Experimental: (§1) U2OS cells were divided into 8 groups: (1) Control group: without any treatment; (2) MT group: U2OS cells were added with 1 mM melatonin; (3) MT + ROCK activator group: U2OS cells were added with 1mM melatonin and 50 µM ROCK activator (pentanoic acid); (4) MT + ROCK inhibitor group: U2OS cells were added with 1mM melatonin and 50 µM ROCK inhibitor (ROCK inhibitor-2); (5) Mg–PCL group: U2OS cells were co-cultured with Mg–PCL scaffold; (6) Mg–PCL + MT group: U2OS cells were co-cultured with Mg–PCL scaffold loaded with melatonin; (7) Mg–PCL + MT + ROCK activator group: U2OS cells were co-cultured with Mg–PCL scaffold loaded with melatonin and added with 50 µM ROCK activator (pentanoic acid); and (8) Mg–PCL + MT + ROCK activator group: U2OS cells were co-cultured with Mg–PCL scaffold loaded with melatonin and added with 50 µM ROCK inhibitor (ROCK inhibitor-2).
To examine the effects of melatonin and CIC formation on the invasiveness of U2OS cells in vitro, we employed a modified Boyden chamber invasion assay with Matrigel coating. After treatment, the cells were seeded into the upper section of the Boyden chamber (Neuro Probe, Cabin John, MD, USA) at densities of 2.0 × 10^5/ml, and then incubated for 24 h at 37 °C. Finally, the cells were counted under a light microscope. Cell migration was measured by a cell invasion assay without Matrigel coating.

U2OS cells [2] = test: CIC formation in U2OS cells (immunofluorescence, electron microscope); type: cell-based, human; settings: immunofluorescence and electron microscope
Experimental: The cells were scrapped after treatment, collected by centrifugation, washed with PBS and fixed with 5% glutaraldehyde. After the cells were dehydrated, embedded, sectioned, stained, the mitophagosomes were observed by TEM. The quantity of CIC structures was calculated in 10 fields a view. After treatment, the cells were fixed with 4% paraformaldehyde at room temperature (23–25 °C) for 15 min. After PBS washing, cells were permeabilized with 0.2% Triton X-100 for 5 min. Sections were incubated in a blocking buffer containing 5% BSA for 30 min at room temperature (23–25 °C), followed by incubation with primary antibodies overnight at 4 °C. Secondary antibodies labeled with fluorescein (1:500, Abcam) were applied for 120 min. After incubating with 0.1% DAPI for 10 min and another wash with PBS, images were captured on a wide field fluorescent microscope (Olympus, Japan). Each experiment was repeated three times (total, n = 90 cells) and the fluorescence intensities were quantified with the ImageJ software. […] The cells were then washed with ice-cold PBS, and analyzed under a confocal laser scanning microscope (Olympus, Tokyo, Japan). […] Image-Pro Plus 6.0 (Media Cybernetics) was used for quantifying mitochondria.

[3] = In vivo safety of melatonin in mice (body weight, HE of main organs); settings: tail vein, once every 2 days at 3 mg each time, 30 days
Experimental: Tissues were fixed in 4% paraformaldehyde. After fixation, the samples were decalcified in 10% EDTA for 21 days before paraffin embedding and then sliced microtomically into a systematic series of 16 μm sections. Standard HE staining was performed and photographed. The average number of deposits per section was calculated using Image-Pro Plus 6.0 (Media Cybernetics, USA).
The safety of melatonin in mice was further studied by injecting melatonin into the tail vein of mice once every 2 days at 3 mg each time. After 30 days, the heart, liver, spleen, lung, kidney and other important organs were collected, sectioned and stained with HE for microscopy observation. […] Along with the increasing of the mass ratio of melatonin and SunP Gel G1, the LE and LC were increased. The LE reached peak at mass ratio of 1:2 and was decreased at mass ratio of 2:1. The mass ratio of 1:2 was selected for further experiments.

U2OS cells [4] = test: Mitochondrial physiology of U2OS cells (fluorescence, Western blot, mtDNA, ATP, O2 consumption); type: cell-based, human; settings: 24 h
Experimental: as §1
Cells or tissues were washed with ice-cold PBS and resuspended in lysis buffer (50 mM Tris–HCl, 150mM NaCl, 1% NP-40, 0.5% sodium deoxycholate, 0.1% sodium dodecyl sulfate) containing protease and phosphorylase inhibitor cocktails. After centrifugation at 12,000g for 30 min at 4 °C, the supernatant containing total protein was collected and quantified using the BCA protein concentration assay kit (Boster, Hubei, China). […] Immunoreactive bands were visualized by the EC3 imaging system (UVP Inc., California, USA), and quantified with the ImageJ software (NIH, USA). The ratios between the proteins of interest and loading controls of the same sample were calculated as relative content and expressed graphically. […]
After treatment, the cells were fixed with 4% paraformaldehyde at room temperature (23–25 °C) for 15 min. […] Each experiment was repeated three times (total, n = 90 cells) and the fluorescence intensities were quantified with the ImageJ software. […] The cells were then washed with ice-cold PBS, and analyzed under a confocal laser scanning microscope (Olympus, Tokyo, Japan). […] Image-Pro Plus 6.0 (Media Cybernetics) was used for quantifying mitochondria. […]

[5] = In vitro release of melatonin (dialysis bag, PBS pH 7.4); type: physicochemical; settings: at 10 h; PBS pH 7.4, 37 °C
Experimental: Standard curve of melatonin was first draw using PBS (pH = 7.4) as solvent under the wavelength of the maximum absorption peak (278 nm). […] The dialysis bag was then placed in a beaker containing the same pH PBS buffer and was vibrated horizontally in a constant temperature shaker (37 °C ± 0.5 °C) with a vibration frequency of 50 times/min. The release liquid (5 ml) was replaced with same amounts of fresh PBS at selected time intervals. The absorbance value of the solution was measured at 278 nm and the drug release rate was calculated as follow: R(%)=ρnV+Vi∑tn-iρi/MD×100 where R means the cumulative drug release rate (%); n means the number of sampling. ρn represents the mass concentration (g/l) of the drug in the nth release. V represents the total volume of the release liquid. ρi represents the mass concentration (g/l) of the drug in the ith release, Vi represents the volume of the release liquid at the ith sampling and MD means the mass of drug loaded (g).

[6] = test system: PKA-Rho/ROCK signaling pathway; test: Western blot of PKA, p-PKA, Rho, ROCK in U2OS cells; type: cell-based, human
Experimental: Cells or tissues were washed with ice-cold PBS and resuspended in lysis buffer (50 mM Tris–HCl, 150mM NaCl, 1% NP-40, 0.5% sodium deoxycholate, 0.1% sodium dodecyl sulfate) containing protease and phosphorylase inhibitor cocktails. After centrifugation at 12,000g for 30 min at 4 °C, the supernatant containing total protein was collected and quantified using the BCA protein concentration assay kit (Boster, Hubei, China). The samples were separated by SDS-PAGE and then transferred to polyvinylidene difluoride (PVDF) membranes (Millipore, Massachusetts, USA) (210 mA, between 30 and 120 min according to the molecular mass of the protein). After blocking for 2 h with 5% non-fat milk, the PVDF membranes were incubated with the appropriate primary antibodies (1:500 or 1:1000 dilution) at 4 °C overnight. The blots were then incubated with anti-mouse or anti-rabbit IgG conjugated to horseradish peroxidase (1:5000 dilution) for 1 h at room temperature (23–25 °C). Immunoreactive bands were visualized by the EC3 imaging system (UVP Inc., California, USA), and quantified with the ImageJ software (NIH, USA). The ratios between the proteins of interest and loading controls of the same sample were calculated as relative content and expressed graphically. The results were averaged from three independent experiments.

human OS (U2OS) cells = test: U2OS xenograft in nude mice: OS growth and metastasis; type: in vivo, Balb/c nude mice; settings: nude mice with implanted U2OS cells, 27 days
Experimental: Female Balb/c nude mice (n = 6, 8 weeks old) were purchased from the Experimental Animal Center of Jilin University. The mice were bred under temperature-controlled conditions at 22.6 ± 2 °C with a 12-h day/light cycle. All applicable institutional and national guidelines for the care and use of animals were followed and the animal experiments were approved by the Animal Care and Use Committee of China Medical University. The heterograft mouse model was established by subcutaneous injection of 2 × 10^8 human OS (U2OS) cells suspended in 0.2 ml medium into the root of the right thigh. […]
The mice were sacrificed. […] Histological alterations were evaluated using a fluorescence microscope (Nikon Eclipse Ti, Optical Apparatus Co., Ardmore, USA) and a confocal microscope (Carl Zeiss, LSM 780).
Tissues were fixed in 4% paraformaldehyde. […] The average number of deposits per section was calculated using Image-Pro Plus 6.0 (Media Cybernetics, USA). […]

U2OS cells [7] = test: Wound-healing assay; type: cell-based, human
Experimental: as §1
The U2OS cells were plated at 8.5 × 10^5/well on 6-well plates for 48 h and were wounded by scratching with a pipette tip. They were subsequently incubated with DMEM containing 0.5% FBS. After repeated treatment at 0, 12, 24 and 48 h, the cells were photographed using a phase contrast microscope (Olympus, Japan).

In the case of `COc1ccc2[nH]cc(CCNC(C)=O)c2c1` [melatonin, Melatonin], the “number of invaded and migrated cells (Transwell)” value (U2OS cells [1]) is reported as “significantly lower”, the “number of CIC structure” value (U2OS cells [2]) is reported as “significantly reduced” and the “organ damage (HE staining of heart, liver, spleen, lung, kidney)” value [3] is reported as “no organ damage was observed”. For the same molecule, the weight of mice [3] was “stable without notable changes”, the “relative fluorescence of mitochondria” value (U2OS cells [4]; 1 mM melatonin, 50 µM ROCK activator/inhibitor) was “reduced” and the “expression of mitochondrial biogenesis-related proteins PGC1α, NRF1 and TFAM” value (U2OS cells [4]; Western blot) was “downregulated”. The “expression of mitochondrial biomarkers TOM20, COX-4l1 and ATP Synβ” value (U2OS cells [4]; Western blot) was “reduced”, the cumulative release rate [5] was 96.3% and the “PKA phosphorylation (Western blot)” value [6] was “promote PKA phosphorylation”. The “Rho and ROCK expressions (Western blot)” value [6] was “reduced”, the “cell apoptosis of xenograft tumors (TUNEL)” value (human OS (U2OS) cells) was “promoted” and the “tumor weight of xenograft tumors” value (human OS (U2OS) cells) was “effectively inhibited”. For the same molecule, the “cell proliferation of xenograft tumors (Ki-67)” value (human OS (U2OS) cells; melatonin 40 mg kg−1 day−1 i.p. or loaded scaffold, ROCK activator/inhibitor 10 mg kg−1 day−1 i.p.) was “effectively inhibited”, the “cell migrated area relative to control (wound healing)” value (U2OS cells [7]; U2OS cells) was “significantly decreased” and the “scratch width (wound healing)” value (U2OS cells [7]; U2OS cells, 0, 12, 24 and 48 h) was “wider”.
